Measurements as given in the NIST ThermoML archive (doi:10.1016/j.jct.2012.04.020).
Several values for one entry are separate records, joined by “and”; a condition that tells them apart may be missing. Equal values may be shown once.

Test: mn = molality of the nth substance listed, in mol/kg
Details: 101 kPa, Liquid; for speed of sound: Sing-around technique in a fixed-path interferometer; for mass density: Vibrating tube method

NCC(=O)O [2-aminoacetic acid] + O
Details | mass density, m1 = 0.04978 [kg/m3] | mass density, m1 = 0.1472 [kg/m3] | mass density, m1 = 0.2507 [kg/m3] | mass density, m1 = 0.3018 [kg/m3] | mass density, m1 = 0.3521 [kg/m3] | speed of sound, m1 = 0.04978 [m/s] | speed of sound, m1 = 0.1472 [m/s] | speed of sound, m1 = 0.2507 [m/s] | speed of sound, m1 = 0.3018 [m/s] | speed of sound, m1 = 0.3521 [m/s]
288.15 K | 1000.74 | 1003.87 | 1007.09 | 1008.62 | 1010.01 | 1484.9 | 1490.1 | 1495.3 | 1497.7 | 1500
298.15 K | 998.674 | 1001.73 | 1004.79 | 1006.26 | 1007.54 | 1499 | 1503.6 | 1508.3 | 1510.3 | 1512.3
308.15 K | 995.639 | 998.704 | 1001.69 | 1003 | 1004.15 | 1521.8 | 1526 | 1530.5 | 1532.4 | 1534.3
318.15 K | 991.801 | 994.854 | 997.838 | 999.157 | 1000.43 | 1538.6 | 1542.8 | 1547 | 1549.3 | 1550.9

C[C@H](N)C(=O)O [(S)-2-aminopropanoic acid] + O
mass density [kg/m3]
Details | m1 = 0.05014 | m1 = 0.15 | m1 = 0.2505 | m1 = 0.303 | m1 = 0.3456
288.15 K | 1000.65 | 1003.65 | 1006.52 | 1007.97 | 1009.14
298.15 K | 998.59 | 1001.56 | 1004.42 | 1005.85 | 1006.98
308.15 K | 995.554 | 998.483 | 1001.31 | 1002.74 | 1003.86
318.15 K | 991.648 | 994.399 | 997.067 | 998.365 | 999.359

O=P([O-])([O-])O.[K+].[K+] [dipotassium hydrogen phosphate] + O
Details | mass density, 288.15 K | mass density, 298.15 K | mass density, 308.15 K | mass density, 318.15 K | speed of sound, 288.15 K | speed of sound, 298.15 K | speed of sound, 308.15 K | speed of sound, 318.15 K
m1 = 0.2 | 1031.93 kg/m3 and 1029.08 kg/m3 | 1029.32 kg/m3 and 1026.51 kg/m3 | 1025.9 kg/m3 and 1023.13 kg/m3 | 1021.79 kg/m3 and 1018.99 kg/m3 | 1502.7 m/s and 1500 m/s | 1530.6 m/s and 1528.2 m/s | 1551.8 m/s and 1549.3 m/s | 1566.8 m/s and 1564.2 m/s
m1 = 0.4 | 1057.5 kg/m3 and 1061.39 kg/m3 | 1054.52 kg/m3 and 1058.35 kg/m3 | 1054.54 kg/m3 and 1050.82 kg/m3 | 1050.25 kg/m3 and 1046.5 kg/m3 | 1531 m/s and 1535 m/s | 1557 m/s and 1560.8 m/s | 1580.1 m/s and 1576.5 m/s | 1593.7 m/s and 1590.2 m/s
m1 = 0.6 | 1084.12 kg/m3 and 1093.21 kg/m3 | 1080.78 kg/m3 and 1089.76 kg/m3 | 1076.82 kg/m3 and 1085.71 kg/m3 | 1072.29 kg/m3 and 1081.11 kg/m3 | 1560.3 m/s and 1570.8 m/s | 1584.4 m/s and 1594.5 m/s | 1602.3 m/s and 1611.8 m/s | 1614.7 m/s and 1623.6 m/s
m1 = 0.8 | 1113.94 kg/m3 and 1116.48 kg/m3 | 1110.27 kg/m3 and 1112.77 kg/m3 | 1106.04 kg/m3 and 1108.53 kg/m3 | 1101.38 kg/m3 and 1103.81 kg/m3 | 1594.2 m/s and 1597.3 m/s | 1616.3 m/s and 1619.1 m/s | 1632.4 m/s and 1635 m/s | 1643.2 m/s and 1645.5 m/s
